Series [1] has as its target T1, HIV-1 RT-associated RNase H activity (Human immunodeficiency virus type 1 group M subtype B, UniProt P04585).
T1 construct: His-tagged p66/p51 HIV-1 RT; His tag; made in house; host or cells: Escherichia coli strain M15
The experiment in a line: RNase H polymerase-independent cleavage assay. Particulars: for Inhibition of both HIV-1 RT-associated RNase H and RDDP functions (in words): maximum concentration tested 100 μM; for IC50: concentration required to inhibit the HIV-1 RNase H activity by 50%. The series is classed as biochemical. As to the method:
(§1) His-tagged p66/p51 HIV-1 RT was expressed in Escherichia coli strain M15 as previously described. Full-length IN and LEDGF proteins were expressed in E. coli BL21 (DE3).
The HIV-1 RT-associated RNase H activity was measured in 100 μL reaction volume containing 50 mM Tris–HCl, pH 7.8; 6 mM MgCl2; 1 mM dithiothreitol (DTT); 80 mM KCl; hybrid RNA/DNA (5′-[…]-3′-fluorescein, 5′-[…]-3′-Dabcyl); and 3.8 nM RT. The reaction mixture was incubated for 1 h at 37°C, the reaction was stopped by the addition of EDTA, and products were measured with a Victor 3 (Perkin) at 490/528 nm.

The target in series [2] is T2, HIV-1 RT-associated RDDP activity (Human immunodeficiency virus type 1 group M subtype B, UniProt P04585).
T2 construct: His-tagged p66/p51 HIV-1 RT; His tag; made in house; host or cells: Escherichia coli strain M15
The experiment in a line: RDDP assay (Enz-Check Reverse Transcriptase Assay Kit). The series is classed as biochemical. Particulars: for IC50: concentration required to inhibit the HIV-1 RDDP activity by 50%. Here is the method: as §1
The HIV-1 RT-associated RDDP activity was measured using the Enz-Check Reverse Transcriptase Assay Kit (Life technologies, Carls- bad, California, USA), as previously described. The Yonetani-Theorell analysis was performed as previously reported.

Series [3] has as its target T3, HIV-1 IN in the presence of LEDGF/p75 (Human immunodeficiency virus type 1 group M subtype B, UniProt P04585).
T3 construct: Full-length IN and LEDGF proteins were expressed in E. coli BL21 (DE3); made in house; host or cells: E. coli BL21 (DE3)
The experiment in a line: HTRF LEDGF dependent integrase assay. The class given is biochemical. The following applies: for IC50: IN catalytic activities in the presence of LEDGF/p75. As to the method:
as §1
The IN LEDGF/p75 dependent assay allowed to measure the inhibition of the 3’processing and strand transfer IN reactions in the presence of recombinant LEDGF/p75 protein, as previously described. Briefly, 50 nM IN was preincubated with increasing concentration of compounds for 1 hour at room temperature in reaction buffer containing 20 mM HEPES pH 7.5, 1 mM DTT, 1% Glycerol, 20 mM MgCl2, 0.05% Brij-35 and 0.1 mg/ml BSA. To this mixture, 9 nM DNA donor substrate (5’-[…]-Biotin-3’ annealed with 5’-[…]-Biotin3’) and 50 nM DNA acceptor substrate (5’-Cy5-[…]-3’ annealed with 5’-Cy5- […]-3’) and 50 nM LEDGF/p75 protein were added and incubated at 37°C for 90 minutes.
(TR-FRET usually uses a lanthanide donor and a delayed reading to cut background.)

The test system of series [4] is HIV-1 virus NL(AD8). The experiment in a line: Antiviral activity on HIV-1 (AD8) replication in TZM-bl cells (CPRG assay). The class given is cell-based. The following applies: for EC50: read-out: EC50, HIV-1 (AD8) replication. As to the method: (§2) The human TZM-bl indicator cell line was obtained from the American Type Culture Collection (Manassas, VA) and maintained at 37°C and 5% CO2 in Dulbecco's modified Eagle's medium (DMEM) containing 10% fetal bovine serum, 50 μg/mLpenicillin, and 50 μg/mL streptomycin. The HIV-1 virus NL(AD8) was titrated as follows: serial 5-fold dilutions of the virus were made in quadruplicate wells in 96-well culture plates, in a total volume of 100 μL of growth medium, for a total of 8 dilution steps. Freshly trypsinized cells (20,000 cells in 100 μL of growth medium containing 75 μg/mL DEAE-dextran) were added to each well, and the plates were incubated at 37°C in a humidified 5% CO2-95% air environment. After 48 h of incubation, the medium was removed and viral infection was quantified using a β-galactosidase (CPRG) assay (Roche). Twenty thousand TZM-bl cells/well were seeded in 96-well plates in complete DMEM supplemented with 30 μg/mL DEAE-dextran (Sigma-Aldrich). Three hundred times the 50% tissue culture infective dose (TCID50)/mL of HIV AD8 strain and seven serial dilutions (range, 40.000 nM to 625 nM) of each compound were added to the cells, as previously described. Vehicle (0.1% dimethyl sulfoxide [DMSO])-treated cells served as a negative control. […] The TZM-bl indicator cell line has an integrated copy of the β-galactosidase gene under control of the HIV-1 promoter. Β-Galactosidase expression, measured by use of a chlorophenol red/β-D-galactopyranoside (CPRG) assay (Roche) in cell lysates 48 h post-infection was used as a marker of HIV infection. The inhibitory curves were fitted by nonlinear regression, allowing for the calculation of the 50% effective concentration (EC50) using the Prism software. To evaluate the cell toxicity of the compounds, the metabolic XTT [2,3-bis-(2-methoxy-4-nitro-5-sulfophenyl)-2H-tetrazolium-5-carboxanilide] test (Sigma-Aldrich) was performed according to the manufacturer's instructions.

The test system of series [5] is TZM-bl cells. The experiment in a line: Cell toxicity, metabolic XTT test. The series is classed as cell-based, human. Here is the method: as §2
Series [6] is described as follows: Cell toxicity, metabolic XTT test. The class given is cell-based, human. The following applies: human; TZM-bl cells, XTT; read-out: CC50, TZM-bl cell viability. Here is the method: as §2
Series [7] concerns env-pseudotyped HIV-1 virus (REJO4541 clone 67). The class given is cell-based. The following applies: TZM-bl cells, 40-fold EC50 concentration.
Protocol: In TOA experiment it is of fundamental importance that only one replication cycle has been completed to avoid confounding effects derived from unwashed viruses after 1 hour of infection. […] 40000 TZM-bl cells/well in a 96-multiwell plate were infected with 1500 X the TCID50 per mL of the env-pseudotyped HIV-1 virus in complete medium supplemented with DEAE-dextran (Sigma–Aldrich, 30 mg/mL). Virus was incubated with cells for 1 h at 4°C, and unbound virus was subsequently removed by extensive and repeated washing with phosphate-buffered saline (PBS) to synchronize the replication. […] After 2 days, viral infection was quantified using a CPRG assay (Roche) and was then normalized to untreated control cells.
Setting [8] is: Human immunodeficiency virus 1, TZM-bl, 48 h.
The mark [9] stands for this setting: TZM-bl cells, 48 h post-infection.

Like-named read-outs stand apart in the source and are kept apart here.

A word on the IC50: it is the midpoint of a concentration-inhibition curve. The term EC50 denotes the concentration at which the effect is half-maximal. The CC50 is the concentration at which the toxic effect on the cells reaches its halfway point.

Turning to `C[C@@H]1O[C@@H](Oc2c(-c3ccc(O)c(O)c3)oc3cc(O)cc(O)c3c2=O)[C@H](O)[C@H](O)[C@H]1O` [Compound 6, quercitrin], the “Inhibition of both HIV-1 RT-associated RNase H and RDDP functions (in words)” value in series [1] is “active in the low micromolar range”. Further, the IC50 in series [1] is 6.3 ± 1 µM; in series [2] it was 9.7 ± 1.4 µM; in series [3] it was 1.6 ± 0.16 µM. Besides, the “Fold more active on HIV-1 IN activity with respect to HIV-1 RNase H function” value in series [3] (IN versus RNase H IC50) was determined as 4 fold. Moreover, the EC50 in series [4] (setting [8]) is > 40 µM. Moreover, in series [4] (highest tested concentration, TZM-bl cells), the “Effect on HIV-1 replication (in words)” value was “did not exert any effect”.

With Maraviroc [reference compound], the EC50 in series [4] (setting [9]) came out at 0.07 µM.

On to `O=C(O)c1ccc(O)c(O)c1` [Compound 5, 3,4-dihydroxybenzoic acid], for which the remaining activity at 100 µM came out at 100% in series [1] (100 μM compound, read-out: Percentage of control RNase H activity in the presence of compound); 85% in series [2] (100 μM compound, read-out: Percentage of control RDDP activity in the presence of compound); 97% in series [3] (100 μM compound, in the presence of LEDGF, read-out: Percentage of control IN activity in the presence of compound). Further, the “Inhibition of both HIV-1 RT-associated RNase H and RDDP functions (in words)” value in series [1] was “inactive”. Besides, the IC50 in series [1], in series [2] and in series [3] was > 100 µM each time. Further, in series [3] (in presence of LEDGF/p75), the “HIV-1 IN inhibition (in words)” value is listed as “not active”. In addition, the EC50 in series [4] (setting [8]) was > 40 µM.

Consider “3-geranyl-1-(2'-methylbutanoyl)phloroglucinol [Compound 1]”, for which the figures for the IC50 in series [1], in series [2] and in series [3] were 4.3 ± 0.4 µM, 25.5 ± 8.8 µM and 7.3 ± 0.3 µM, respectively. Moreover, the EC50 in series [4] (setting [9]) amounted to 3.5 µM. For the same compound, the CC50 in series [5] is > 50 µM.

`CCOC(=O)C(=O)CC(=O)/C=C/c1cccn1Cc1ccccc1Cl` [RDS 1759, reference compound] had an IC50 in series [1] of 7.3 ± 0.1 µM.

Take `C=C(C)C(O)CC/C(C)=C/Cc1c(O)cc(O)c(C(=O)C(C)CC)c1O` (stereo not drawn) [Compound 3, 3-(13-hydroxygeranyl)-1-(2'-methylbutanoyl)phloroglucinol]: the results for the IC50 in series [1], in series [2] and in series [3] were 9.1 ± 0.5 µM, 19.7 ± 3.5 µM and 13 ± 1 µM, respectively. Moreover, the EC50 in series [4] (setting [8]) worked out at 3.5 µM. Also, the CC50 in series [6] was > 50 µM. In addition, in series [7], the “Time of addition after which antiviral activity is lost” value is 4–5 hour post-infection.

Take “3-geranyl-1-(2'-methylpropanoyl)phloroglucinol [Compound 2]”: the IC50 in series [1] was 4.1 ± 0.1 µM; in series [2] it was 12.3 ± 2.5 µM; in series [3], 7.4 ± 0.4 µM. In series [4] (setting [9]), the half-maximal effective concentration (EC50) worked out at 8 µM. The CC50 in series [5] was > 50 µM.

For the compound `Oc1cc(O)c(CC(O)C(O)c2ccc(O)c(O)c2)c(O)c1` [Compound 4, 1,3,5-benzentriol 2-[(2S,3R)-3-(3,4-dihydroxylphenyl)-2,3-dihydroxylpropyl]], in series [1], the “Inhibition of both HIV-1 RT-associated RNase H and RDDP functions (in words)” value was “weak inhibition”. In addition, the IC50 came out at 93 ± 7 µM in series [1], 92 ± 10 µM in series [2] and 6.4 ± 0.7 µM in series [3]. Moreover, the EC50 in series [4] (setting [8]) was > 40 µM.

Source of the values: paper PMC5877874, “Prenylated phloroglucinols from Hypericum scruglii, an endemic species of Sardinia (Italy), as new dual HIV-1 inhibitors effective on HIV-1 replication” (PLoS ONE, 2018).
